Measurements published in US8178654B2, “Estrogen receptor intramolecular folding systems, estrogen receptor intramolecular folding sensors, methods of use thereof, methods of detecting ER ligands, and methods of detecting ER agonists and antagonists” (Stanford University, priority 2006, dated 2012).

Columns and labels:
[1] = biological target: T1, hER281-549 (human estrogen receptor alpha ligand binding domain amino acids 281-549) (Homo sapiens, UniProt P03372, G400V); test: Ligand-induced intramolecular folding split RLUC complementation, N-RLUC-hER281-549-C-RLUC in transfected cells; assay type: cell-based; details: for ligand-induced RLUC complementation signal (in words): transfected cells, 1 μM ligand, 18 hours
T1 construct: expressed in transfected cells; host or cells: 293T (transient); also transfected MCF7 and MDA-MB231
T1 sequence (P03372 281-549 G400V): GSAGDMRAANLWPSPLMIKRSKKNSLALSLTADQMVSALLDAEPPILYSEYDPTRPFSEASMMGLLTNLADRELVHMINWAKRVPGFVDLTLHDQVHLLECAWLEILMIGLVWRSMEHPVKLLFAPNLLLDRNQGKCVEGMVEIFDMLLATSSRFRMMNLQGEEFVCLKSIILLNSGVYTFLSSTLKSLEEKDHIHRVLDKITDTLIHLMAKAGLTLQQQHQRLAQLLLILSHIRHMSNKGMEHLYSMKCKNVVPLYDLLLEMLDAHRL
Description: (§1) For transfection, 200 ng DNA/well were used in 12 well culture plates. Volumes of Lipofectamine were as recommended by the manufacturer. The co-transfection of 10 ng/well Fluc DNA served as control for normalizing transfection. The cells were assayed after 18 hours of incubation at 37° C. with 5% CO2. The luminometry assay for Renilla Luciferase activity was performed as per protocol published previously. In brief, the cells were lysed in 200 μl of 1× passive lysis buffer (Promega, Madison, Wis.) by shaking for 15 min at room temperature. The cell lysates were centrifuged for 5 min at 10,000 rpm at 4° C. Twenty μl of supernatants were assayed by adding 1 μg of substrate coelenterazine in 100 μl of 0.05M sodium phosphate buffer (pH 7.0) followed by photon counting in the luminometer (Turner Designs, model T 20/20, Sunnyvale, Calif.) for 10 s. The readings were normalized by measuring the protein concentration in the cell lysates and also by measuring the FLUC activity. Activity of RLUC was represented as normalized relative light units (RLU) per microgram of protein.
The cells were assayed for RLUC activity after 18 hours of incubation. The results were normalized as mentioned in the previous experiments.
The results were normalized as mentioned in the previous experiments.
(§2) The ligand agonists and antagonists specific intramolecular folding were studied in ER positive and negative cell lines. […] The cells exposed to solvent DMSO served as control. The same samples were analysed by Western blot for the detection of the transfected protein level using anti-RLUC antibody using the method mentioned above.

hERG521R = hERG521R (Homo sapiens, UniProt P03372, G400V/G521R); details: mutant human ER
Description: as §1

[2] = biological target: T2, fusion protein N-RLUC-hER281-549-C-RLUC in 293T cells (Homo sapiens, UniProt P03372, G400V); test: Western blot of sensor fusion protein level in transfected 293T cells (anti-RLUC antibody); assay type: cell-based; details: 1 μM ligand, 18 hours
T2 construct: expressed in transfected cells; host or cells: 293T (transient)
T2 sequence (P03372 281-549 G400V): T1 sequence (P03372 281-549 G400V)
Description: as §2

hERG521R, sequence (P03372 281-595 G400V/G521R): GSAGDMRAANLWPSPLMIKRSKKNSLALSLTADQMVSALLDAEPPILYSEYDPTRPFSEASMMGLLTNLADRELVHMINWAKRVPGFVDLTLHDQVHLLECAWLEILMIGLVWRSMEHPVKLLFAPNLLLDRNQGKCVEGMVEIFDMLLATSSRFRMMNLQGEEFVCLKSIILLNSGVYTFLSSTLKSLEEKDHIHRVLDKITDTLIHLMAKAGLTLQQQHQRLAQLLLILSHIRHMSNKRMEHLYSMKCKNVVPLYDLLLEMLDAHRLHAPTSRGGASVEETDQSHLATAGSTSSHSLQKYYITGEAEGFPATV

Row | Molecule | ligand-induced RLUC complementation signal (in words) [1] | expressed fusion (sensor) protein level [2] | other results
1 | 4-hydroxytamoxifen | – | – | RLUC complementation at different time points (in words) [1]: significant (P<0.0015) level of RLUC complementation; complemented Renilla Luciferase activity relative to cells before exposed to ligand [1]: 80±15 times; concentration dependence of RLUC activity (in words) [1]: increased RLUC activity; receptor mediated RLUC complementation (hERG521R): 3-5%
2 | N.N.[Cl][Pt][Cl] [Cisplatinum] | not significantly different from cells transfected and not exposed to any ligands | significant reduction in the expressed fusion protein levels | –
3 | COc1cccc2c1C(=O)c1c(O)c3c(c(O)c1C2=O)C[C@@](O)(C(=O)CO)C[C@@H]3O[C@H]1C[C@H](N)[C@H](O)[C@H](C)O1 [Doxirubicin] | not significantly different from cells transfected and not exposed to any ligands | – | –
4 | O=C(O[C@@H]1Cc2c(O)cc(O)cc2O[C@@H]1c1cc(O)c(O)c(O)c1)c1cc(O)c(O)c(O)c1 [Epigallocatechin gallate] | not significantly different from cells transfected and not exposed to any ligands | significant reduction in the expressed fusion protein levels | –
5 | C[C@]12CC[C@@H]3c4ccc(O)cc4C[C@@H](CCCCCCCCC[S+]([O-])CCCC(F)(F)C(F)(F)F)[C@H]3[C@@H]1CC[C@@H]2O (stereo partly shown) [ICI182,780] | – | no significant level of degradation | –
